# Target: recombinant human PI3Kγ (aa144-1102)-6His (Homo sapiens (Human), UniProt P48736)
# Test: Test A: Enzymatic Activity Assay for Rec Human PI3Kγ (ADP-Glo)
# Assay type: biochemical
# Details: 20 μM ATP, 80 μM DiC8-PIP2, 1.2 nM PI3Kγ, 15 min pre-incubation, 60 min reaction
# Method: Pharmacological Activity Test A: Enzymatic Activity Assay for Rec Human PI3Kγ
# The activity of recombinant human PI3Kγ (aa144-1102)-6His was determined by measuring the ADP level after phosphorylation of DiC8-PIP2 using a commercially available ADP-Glo™ kit from Promega. The assay was carried out in white low volume 384 well plates in a final volume of 14 μl at rt. The assay conditions contained the following: 50 mM Tris buffer pH 7.4, 2.1 mM DTT, 3 mM MgCl2, 0.05% CHAPS, 20 μM ATP, 80 μM DiC8-PIP2 and 1.2 nM PI3Kγ. […] Routinely, inhibitors were pre-incubated with 3 μl of PI3Kγ for 15 min prior to the addition of […] substrate mixture for a further 60 min enzyme reaction. The phosphorylation was stopped with the addition of 3 μl ADP-Glo™ reagent (stop solution) followed by a 40 min incubation. Prior to detection 6 μl of ADP-Glo™ Kinase Detection Reagent was added and the plates were read in a micro plate reader using a Luminescence filter.
# recombinant human PI3Kγ (aa144-1102)-6His, sequence (P48736 144-1102): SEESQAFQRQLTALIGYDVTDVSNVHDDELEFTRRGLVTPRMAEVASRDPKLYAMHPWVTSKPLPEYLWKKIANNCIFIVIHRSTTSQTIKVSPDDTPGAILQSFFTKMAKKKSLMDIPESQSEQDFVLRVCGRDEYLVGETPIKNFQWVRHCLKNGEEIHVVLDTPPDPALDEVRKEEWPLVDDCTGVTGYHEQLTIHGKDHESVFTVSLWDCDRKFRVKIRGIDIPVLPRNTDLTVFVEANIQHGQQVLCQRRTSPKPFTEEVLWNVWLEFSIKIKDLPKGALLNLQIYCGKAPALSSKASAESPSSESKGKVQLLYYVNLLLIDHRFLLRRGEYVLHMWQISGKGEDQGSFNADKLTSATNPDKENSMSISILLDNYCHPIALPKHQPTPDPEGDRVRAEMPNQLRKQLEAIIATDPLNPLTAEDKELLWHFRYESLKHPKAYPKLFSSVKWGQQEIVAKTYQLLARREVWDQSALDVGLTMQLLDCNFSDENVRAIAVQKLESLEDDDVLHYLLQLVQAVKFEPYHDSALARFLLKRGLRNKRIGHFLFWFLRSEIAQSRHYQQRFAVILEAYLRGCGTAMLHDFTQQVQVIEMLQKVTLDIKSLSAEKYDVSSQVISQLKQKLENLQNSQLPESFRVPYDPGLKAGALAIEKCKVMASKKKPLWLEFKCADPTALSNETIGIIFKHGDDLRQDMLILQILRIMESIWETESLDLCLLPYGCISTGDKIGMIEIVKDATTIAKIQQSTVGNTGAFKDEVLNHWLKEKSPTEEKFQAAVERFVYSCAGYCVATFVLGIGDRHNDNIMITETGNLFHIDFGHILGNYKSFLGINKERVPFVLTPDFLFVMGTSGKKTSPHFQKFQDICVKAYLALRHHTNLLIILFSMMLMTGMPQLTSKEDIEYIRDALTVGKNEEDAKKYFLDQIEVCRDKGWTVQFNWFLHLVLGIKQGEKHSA
row,Structure (SMILES),"PI3Kγ activity, pIC50"
1,"CNS(=O)(=O)c1cc(-c2sc(NC(C)=O)nc2C)cc2c1C(=O)N([C@@H](C)C(C)(C)C)C2 [Example 33, N-(5-{2-[(2S)-3,3-Dimethylbutan-2-yl]-7-(methylsulfamoyl)-1-oxo-2,3-dihydro-1H-isoindol-5-yl}-4-methyl-1,3-thiazol-2-yl)acetamide]",8.8
2,"CNS(=O)(=O)c1cc(-c2sc(NC(C)=O)nc2C)cc2c1C(=O)N(C(C)(C)C)C2 [Example 34, N-{5-[2-tert-Butyl-7-(methylsulfamoyl)-1-oxo-2,3-dihydro-1H-isoindol-5-yl]-4-methyl-1,3-thiazol-2-yl}acetamide]",8.8
3,"CNS(=O)(=O)c1cc(-c2sc(NC(C)=O)nc2C)cc2c1C(=O)N([C@@H](C)C(F)(F)F)C2 [Example 35, N-(4-Methyl-5-{7-(methylsulfamoyl)-1-oxo-2-[(2S)-1,1,1-trifluoropropan-2-yl]-2,3-dihydro-1H-isoindol-5-yl}-1,3-thiazol-2-yl)acetamide]",9.0

# More lines, now with the values ahead:
row,"PI3Kγ activity, pIC50",Structure (SMILES)
1,9.3,"CC(=O)Nc1nc(C)c(-c2cc3c(c(S(=O)(=O)Nc4cccc(C#N)c4)c2)C(=O)N([C@@H](C)C2CC2)C3)s1 [Example 36, N-(5-{7-[(3-Cyanophenyl)sulfamoyl]-2-[(1S)-1-cyclopropylethyl]-1-oxo-2,3-dihydro-1H-isoindol-5-yl}-4-methyl-1,3-thiazol-2-yl)acetamide]"
2,9.0,"CC(=O)Nc1nc(C)c(-c2cc3c(c(S(=O)(=O)Nc4cccc(C#N)c4)c2)C(=O)N(C(C)C)C3)s1 [Example 37, N-(5-{7-[(3-Cyanophenyl)sulfamoyl]-1-oxo-2-(propan-2-yl)-2,3-dihydro-1H-isoindol-5-yl}-4-methyl-1,3-thiazol-2-yl)acetamide]"

# From patent US10858355B2, “Inhibitors of phosphatidylinositol 3-kinase gamma” (AstraZeneca AB, priority 2016, dated 2020)
